# Target: T1, H3R membranes (H3R8-expressing HEK293 cell line) (Homo sapiens, UniProt Q9Y5N1)
# T1 construct: expressed in transfected cells; pcDNA3.1(+) vector, G418 selection)
# Experiment: [35S] GTP gamma [S] binding assay
# Type: biochemical
# Conditions: inhibition of [35S]GTP gamma S binding to H3R membranes in presence of agonist R(-)alpha methylhistamine
# Experimental: Membranes isolated as described in (Preparation of Histamine Receptor Subtype Membranes) are used in a [35S]GTPχS functional assay. Binding of [35S]GTPχS to membranes indicates agonist activity. Compounds of the invention of Formula I or Formula II are tested for their ability to inhibit binding in the presence of agonists. Alternately, the same transfected cell lines are used for a cAMP assay wherein H3R agonists inhibit forskolin-activated synthesis of cAMP. Compounds of Formula I or Formula II are tested for their ability to permit forskolin-stimulated cAMP synthesis in the presence of agonist.
# cDNA for the human histamine 3 receptor is cloned and expressed as described in (A. Preparation H1R membranes), above. Transfected cells are selected using G418 ([…]), grown, and tested for histamine binding by the SPA described above. For total binding, cells are assayed in a SPA reaction described above containing 50 mM Tris-HCL (assay buffer), pH 7.6, 1 mg wheat germ agglutinin SPA beads (Amersham Pharmacia Biotech, #RPNQ0001), and 1 nM (^3H)-n-alpha-methylhistamine (NEN, NET1027) (total volume per well=200 μl). Thioperimide is added to determine non-specific binding. […]
# Antagonist activity of selected compounds is tested for inhibition of [35S] […] Plates are counted in Wallac Trilux 1450 Microbeta scintillation counter for 1 minute. […]
# T1 sequence (Q9Y5N1 whole entry): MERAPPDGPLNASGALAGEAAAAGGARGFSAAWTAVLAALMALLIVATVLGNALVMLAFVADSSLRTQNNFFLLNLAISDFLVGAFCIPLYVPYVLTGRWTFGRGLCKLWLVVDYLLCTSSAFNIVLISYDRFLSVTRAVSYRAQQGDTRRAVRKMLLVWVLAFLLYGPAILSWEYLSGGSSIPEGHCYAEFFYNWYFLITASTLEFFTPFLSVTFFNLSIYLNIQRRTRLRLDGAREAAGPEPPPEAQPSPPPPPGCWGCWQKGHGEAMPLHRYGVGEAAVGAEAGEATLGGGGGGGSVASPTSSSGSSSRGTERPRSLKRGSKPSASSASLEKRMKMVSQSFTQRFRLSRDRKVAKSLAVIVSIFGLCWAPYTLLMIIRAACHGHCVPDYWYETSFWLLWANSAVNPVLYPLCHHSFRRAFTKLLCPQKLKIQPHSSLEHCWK
row,Ki [nM],SMILES
1,73.6,COc1ccc(C(=O)N2CCC[C@H]2CN2CCCC2)cc1
2,145,CCCCOc1ccc(C(=O)N2CCC[C@@H]2CN2CCCC2)cc1

# From patent publication US7951826B2, “Pyrrolidine derivatives as histamine H3 receptor antagonists” (Eli Lilly and Company, priority 2005, dated 2011)
